≈ marks a conversion by molar mass, not a printed value.
Test system: Histophilus somni
Assay: minimum inhibitory concentration (MIC)
Protocol: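 Broth microdilution MIC (Sensititre BOPO7F bovine plate, CLSI methods) of 19 antimicrobials against field isolates of P. multocida, M. haemolytica, H. somni (deep nasopharyngeal swabs) and E. coli, Enterococcus spp. (rectal swabs) from weaned dairy heifers. Incubation 16-24 h at 35 C. MIC is the lowest concentration preventing visible growth. Values with <= or > lie at the tested range limits. Trimethoprim-sulfamethoxazole is given as the trimethoprim component of a 1:19 mixture.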

CCCNC[C@]1(O)[C@H](C)O[C@@H](O[C@H]2[C@H](C)[C@@H](O[C@@H]3O[C@H](C)C[C@H](N(C)C)[C@H]3O)[C@](C)(O)C[C@@H](C)CN[C@H](C)[C@@H](O)[C@](C)(O)[C@@H](CC)OC(=O)[C@@H]2C)C[C@@]1(C)OC [Tulathromycin]
Conditions	minimum inhibitory concentration [µg/mL]
isolate (source animal id): 3	≤ 8
isolate (source animal id): 4	≤ 8
isolate (source animal id): 7	≤ 8
isolate (source animal id): 14	≤ 8
isolate (source animal id): 15	≤ 8
isolate (source animal id): 17	≤ 8
isolate (source animal id): 18	≤ 8
isolate (source animal id): 20	≤ 8
isolate (source animal id): 23	≤ 8
isolate (source animal id): 45	≤ 8
isolate (source animal id): 53	≤ 8
isolate (source animal id): 83	≤ 8
isolate (source animal id): 88	≤ 8
isolate (source animal id): 92	16 (≈ 19.8 µM)
isolate (source animal id): 93	≤ 8
isolate (source animal id): 99	≤ 8
isolate (source animal id): 100	16 (≈ 19.8 µM)
isolate (source animal id): 105	≤ 8
isolate (source animal id): 107	≤ 8
isolate (source animal id): 108	≤ 8
isolate (source animal id): 109	≤ 8
isolate (source animal id): 110	16 (≈ 19.8 µM)
isolate (source animal id): 117	≤ 8
isolate (source animal id): 121	≤ 8
isolate (source animal id): 123	≤ 8
isolate (source animal id): 124	≤ 8
isolate (source animal id): 127	≤ 8
isolate (source animal id): 128	≤ 8
isolate (source animal id): 130	16 (≈ 19.8 µM)
isolate (source animal id): 132	≤ 8
isolate (source animal id): 135	≤ 8
isolate (source animal id): 140	≤ 8
isolate (source animal id): 141	≤ 8
isolate (source animal id): 142	> 64
isolate (source animal id): 144	≤ 8
isolate (source animal id): 146	16 (≈ 19.8 µM)
isolate (source animal id): 147	> 64
isolate (source animal id): 151	≤ 8
isolate (source animal id): 153	16 (≈ 19.8 µM)
isolate (source animal id): 154	> 64
isolate (source animal id): 156	> 64
isolate (source animal id): 157	16 (≈ 19.8 µM)
isolate (source animal id): 176	≤ 8
isolate (source animal id): 183	≤ 8
isolate (source animal id): 186	≤ 8
isolate (source animal id): 196	≤ 8
isolate (source animal id): 198	≤ 8
isolate (source animal id): 200	16 (≈ 19.8 µM)
isolate (source animal id): 206	≤ 8
isolate (source animal id): 208	≤ 8
isolate (source animal id): 210	≤ 8
isolate (source animal id): 212	≤ 8
isolate (source animal id): 215	≤ 8
isolate (source animal id): 216	16 (≈ 19.8 µM)
isolate (source animal id): 218	≤ 8
isolate (source animal id): 219	≤ 8
isolate (source animal id): 224	≤ 8
isolate (source animal id): 228	≤ 8
isolate (source animal id): 230	≤ 8
isolate (source animal id): 233	≤ 8
isolate (source animal id): 238	≤ 8
isolate (source animal id): 239	≤ 8
isolate (source animal id): 241	≤ 8
isolate (source animal id): 242	≤ 8
isolate (source animal id): 243	≤ 8
isolate (source animal id): 245	≤ 8
isolate (source animal id): 246	≤ 8
isolate (source animal id): 247	≤ 8
isolate (source animal id): 248	≤ 8
isolate (source animal id): 250	≤ 8
isolate (source animal id): 251	≤ 8
isolate (source animal id): 252	≤ 8
isolate (source animal id): 254	≤ 8
isolate (source animal id): 258	≤ 8
isolate (source animal id): 259	≤ 8
isolate (source animal id): 262	≤ 8
isolate (source animal id): 264	≤ 8
isolate (source animal id): 265	≤ 8
isolate (source animal id): 266	≤ 8
isolate (source animal id): 267	≤ 8
isolate (source animal id): 269	≤ 8
isolate (source animal id): 271	≤ 8
isolate (source animal id): 272	≤ 8
isolate (source animal id): 274	≤ 8
isolate (source animal id): 276	≤ 8
isolate (source animal id): 278	≤ 8
isolate (source animal id): 280	≤ 8
isolate (source animal id): 281	≤ 8
isolate (source animal id): 283	≤ 8
isolate (source animal id): 288	≤ 8
isolate (source animal id): 291	≤ 8
isolate (source animal id): 292	≤ 8
isolate (source animal id): 296	≤ 8
isolate (source animal id): 306	≤ 8
isolate (source animal id): 336	16 (≈ 19.8 µM)
isolate (source animal id): 337	16 (≈ 19.8 µM)
isolate (source animal id): 341	≤ 8
